Measured values from EPA's ToxRefDB 2.

How the values were obtained:
dog [1] = settings: Subchronic oral toxicity in nonrodent, beagle, Feed, dose end: 13 week
rat [2] = settings: Combined chronic toxicity/carcinogenicity, sprague dawley, Oral, Feed, dose end: 24 month
rat [3] = settings: Multigenerational reproductive toxicity study, other, Oral, Feed, dose end: 2 generation
rat [4] = settings: Subchronic oral toxicity in rodents, sprague dawley, Feed, dose end: 13 week
mouse [5] = settings: Subchronic oral toxicity in rodents, cd1, Feed, dose end: 90 day, group: cholinesterase
dog [6] = settings: Chronic toxicity, beagle, Oral, Feed, dose end: 52 week, group: cholinesterase
rabbit = settings: Prenatal developmental toxicity study, new zealand white, Oral, Gavage/Intubation, dose end: 19 GD
mouse [7] = settings: Carcinogenicity, cd1, Oral, Feed, dose end: 78 week
rat [8] = settings: Multigenerational reproductive toxicity study, sprague dawley, Oral, Feed, dose end: 2 generation
mouse [9] = settings: Carcinogenicity; cd1; Oral; Feed; dose end: 18 month; group: systemic; systemic / hematology / erythrocyte (rbc) count differential / erythrocyte (rbc) + systemic / hematology / heinz body / heinz body + …
rat [10] = settings: Subchronic oral toxicity in rodents, sprague dawley, Feed, dose end: 90 day, group: systemic, systemic / hematology / erythrocyte (rbc) count differential / erythrocyte (rbc) + systemic / hematology / hematocrit (hct) / hematocrit (…
dog [11] = settings: Chronic toxicity, beagle, Oral, Capsule, dose end: 52 week, group: systemic
rat [12] = settings: Subchronic oral toxicity in rodents, sprague dawley, Feed, dose end: 90 day, group: systemic
rat [13] = settings: Combined chronic toxicity/carcinogenicity, other, Oral, Feed, dose end: 104 week, group: systemic
mouse [14] = settings: Subchronic oral toxicity in rodents, cd1, Feed, dose end: 90 day, group: systemic
dog [15] = settings: Chronic toxicity; beagle; Oral; Feed; dose end: 52 week; group: systemic; systemic / in life observation / body weight / body weight gain + systemic / organ weight / heart / absolute + systemic / organ weight / …
rat [16] = settings: Combined chronic toxicity/carcinogenicity, sprague dawley, Oral, Feed, dose end: 104 week, group: systemic
[17] = group: cholinesterase, cholinesterase / cholinesterase / cholinesterase / plasma cholinesterase (che)
[18] = group: systemic, systemic / clinical chemistry / protein / protein + systemic / in life observation / clinical signs / emaciation + systemic / in life …
[19] = group: cholinesterase, cholinesterase / cholinesterase / cholinesterase / erythrocyte cholinesterase (che) + cholinesterase / cholinesterase / cholinesterase / …
[20] = group: systemic, systemic / in life observation / body weight / body weight + systemic / in life observation / body weight / body weight gain + systemic / in…
[21] = group: offspring, systemic / in life observation / body weight / offspring (pup) weight
[22] = group: parental, systemic / in life observation / body weight / body weight + systemic / in life observation / clinical signs / abnormal feces + systemic / …
[23] = group: cholinesterase, cholinesterase / cholinesterase / cholinesterase / plasma cholinesterase (che) + cholinesterase / cholinesterase / cholinesterase / brain …
[24] = group: systemic, systemic / in life observation / body weight / body weight + systemic / in life observation / food consumption / food consumption + systemic…
[25] = cholinesterase / cholinesterase / cholinesterase / plasma cholinesterase (che) + cholinesterase / cholinesterase / cholinesterase / brain …
[26] = cholinesterase / cholinesterase / cholinesterase / brain cholinesterase (che)
[27] = cholinesterase / cholinesterase / cholinesterase / brain cholinesterase (che) + cholinesterase / cholinesterase / cholinesterase / …
[28] = group: developmental, systemic / in life observation / body weight / fetal weight
[29] = group: maternal, systemic / in life observation / body weight / body weight gain + systemic / in life observation / clinical signs / defecation + systemic / …
[30] = group: systemic, systemic / in life observation / body weight / body weight gain + systemic / in life observation / clinical signs / pneumonia + systemic / …
[31] = group: offspring, systemic / organ weight / spleen / absolute + systemic / organ weight / spleen / relative to body weight
[32] = group: offspring, systemic / organ weight / spleen / absolute + systemic / organ weight / spleen / relative to body weight + systemic / organ weight / liver…
[33] = group: parental, systemic / organ weight / spleen / absolute + systemic / organ weight / spleen / relative to body weight
[34] = group: parental, systemic / organ weight / spleen / relative to body weight + systemic / organ weight / spleen / absolute
[35] = group: reproductive, reproductive / offspring survival early / litter size / litter size
[36] = systemic / hematology / jolly bodies / jolly bodies + systemic / hematology / mean corpuscular hemoglobin concentration (mchc) / mean …
[37] = systemic / hematology / mean corpuscular hemoglobin concentration (mchc) / mean corpuscular hemoglobin concentration (mchc)
[38] = systemic / hematology / erythrocyte (rbc) count differential / erythrocyte (rbc) + systemic / hematology / hemoglobin (hgb) / hemoglobin (…
[39] = systemic / hematology / methemoglobin / methemoglobin + systemic / hematology / reticulocyte / reticulocyte + systemic / pathology …
[40] = systemic / organ weight / spleen / absolute + systemic / urinalysis / volume / volume
[41] = systemic / organ weight / spleen / absolute + systemic / organ weight / spleen / relative to body weight + systemic / hematology / …
[42] = systemic / in life observation / body weight / body weight + systemic / clinical chemistry / phosphorus / phosphate + systemic / clinical …

CCOC(=O)CSc1nc(C(C)(C)C)nn1C(=O)N(C)C [Triazamate]
LEL (dog [1]; [17]): 0.03 mg/kg/day
LOAEL (dog [1]; [17]): 0.03 mg/kg/day
NEL (dog [1]; [17]): < 0.03 mg/kg/day
NOAEL (dog [1]; [17]): < 0.03 mg/kg/day
LOAEL (dog [1]; [18]): 3.11 mg/kg/day
NOAEL (dog [1]; [18]): 0.31 mg/kg/day
NEL (dog [1]; group: systemic, systemic / in life observation / clinical signs / distended abdomens + systemic / in life observation / clinical signs / vomitting + …): 0.03 mg/kg/day
LEL (dog [1]; group: systemic, systemic / in life observation / clinical signs / vomitting): 0.31 mg/kg/day
LEL (rat [2]; [19]): 11.5 mg/kg/day
LOAEL (rat [2]; [19]): 11.5 mg/kg/day
NEL (rat [2]; [19]): 0.45 mg/kg/day
NOAEL (rat [2]; [19]): 0.45 mg/kg/day
LEL (rat [2]; [20]): 59.2 mg/kg/day
LOAEL (rat [2]; [20]): > 59.2 mg/kg/day
NEL (rat [2]; [20]): 11.5 mg/kg/day
NOAEL (rat [2]; [20]): ≥ 59.2 mg/kg/day
LEL (rat [3]; [19]): 17 mg/kg/day
LOAEL (rat [3]; [19]): 17 mg/kg/day
NEL (rat [3]; [19]): 0.7 mg/kg/day
NOAEL (rat [3]; [19]): 0.7 mg/kg/day
LEL (rat [3]; [21]): 101 mg/kg/day
LOAEL (rat [3]; [21]): 101 mg/kg/day
NEL (rat [3]; [21]): 17 mg/kg/day
NOAEL (rat [3]; [21]): 17 mg/kg/day
LEL (rat [3]; [22]): 101 mg/kg/day
LOAEL (rat [3]; [22]): > 101 mg/kg/day
NEL (rat [3]; [22]): 17 mg/kg/day
NOAEL (rat [3]; [22]): ≥ 101 mg/kg/day
LEL (rat [4]; [17]): 31 mg/kg/day
LOAEL (rat [4]; [17]): 31 mg/kg/day
NEL (rat [4]; [23]): 3 mg/kg/day
NOAEL (rat [4]; [23]): 3 mg/kg/day
LOAEL (rat [4]; group: systemic, systemic / in life observation / body weight / body weight + systemic / in life observation / food consumption / food consumption): 93 mg/kg/day
LEL (rat [4]; [24]): 93 mg/kg/day
NEL (rat [4]; [24]): 31 mg/kg/day
NOAEL (rat [4]; [24]): 31 mg/kg/day
LOAEL (mouse [5]; cholinesterase / cholinesterase / cholinesterase / plasma cholinesterase (che)): 4.55 mg/kg/day
NEL (mouse [5]; [25]): 0.336 mg/kg/day
NOAEL (mouse [5]; [25]): 0.336 mg/kg/day
LEL (mouse [5]; cholinesterase / cholinesterase / cholinesterase / plasma cholinesterase (che) + cholinesterase / cholinesterase / cholinesterase / …): 4.55 mg/kg/day
LEL (dog [6]; [26]): 0.0232 mg/kg/day
LOAEL (dog [6]; [26]): 0.0232 mg/kg/day
NEL (dog [6]; [27]): 0.0172 mg/kg/day
NOAEL (dog [6]; [27]): 0.0172 mg/kg/day
LEL (rabbit; [28]): 0.5 mg/kg/day
LOAEL (rabbit; [28]): > 10 mg/kg/day
NEL (rabbit; [28]): 0.05 mg/kg/day
NOAEL (rabbit; [28]): ≥ 10 mg/kg/day
LEL (rabbit; [29]): 0.5 mg/kg/day
LOAEL (rabbit; [29]): 0.5 mg/kg/day
NEL (rabbit; [29]): 0.05 mg/kg/day
NOAEL (rabbit; [29]): 0.05 mg/kg/day
LEL (mouse [7]; [17]): 6.7 mg/kg/day
LOAEL (mouse [7]; [17]): 6.7 mg/kg/day
NEL (mouse [7]; [23]): 0.13 mg/kg/day
NOAEL (mouse [7]; [23]): 0.13 mg/kg/day
LOAEL (mouse [7]; group: systemic, systemic / in life observation / body weight / body weight gain + systemic / in life observation / clinical signs / pneumonia): 210 mg/kg/day
LEL (mouse [7]; [30]): 210 mg/kg/day
NEL (mouse [7]; [30]): 6.7 mg/kg/day
NOAEL (mouse [7]; [30]): 6.7 mg/kg/day

O=C(NC(=O)c1c(F)cccc1F)Nc1ccc(OC(F)(F)C(F)OC(F)(F)F)c(Cl)c1 (centres undefined) [Novaluron]
LOAEL (rat [8]; [31]): 74.2 mg/kg/day
NOAEL (rat [8]; [31]): < 74.2 mg/kg/day
LEL (rat [8]; [32]): 74.2 mg/kg/day
NEL (rat [8]; [32]): < 74.2 mg/kg/day
LOAEL (rat [8]; [33]): 74.2 mg/kg/day
NOAEL (rat [8]; [33]): < 74.2 mg/kg/day
LEL (rat [8]; [34]): 74.2 mg/kg/day
NEL (rat [8]; [34]): < 74.2 mg/kg/day
LEL (rat [8]; [35]): 895 mg/kg/day
LOAEL (rat [8]; [35]): > 895 mg/kg/day
NEL (rat [8]; [35]): 298 mg/kg/day
NOAEL (rat [8]; [35]): ≥ 895 mg/kg/day
LEL (mouse [9]): 53.4 mg/kg/day
LOAEL (mouse [9]): 53.4 mg/kg/day
NEL (mouse [9]): 3.6 mg/kg/day
NOAEL (mouse [9]): 3.6 mg/kg/day
LEL (rat [10]): 8.64 mg/kg/day
LOAEL (rat [10]): 8.64 mg/kg/day
NEL (rat [10]): 4.38 mg/kg/day
NOAEL (rat [10]): 4.38 mg/kg/day
LOAEL (dog [11]; [36]): 100 mg/kg/day
NOAEL (dog [11]; [36]): 10 mg/kg/day
LEL (dog [11]; [37]): 10 mg/kg/day
NEL (dog [11]; [37]): < 10 mg/kg/day
LEL (rat [12]; [38]): 4.7 mg/kg/day
NEL (rat [12]; [38]): < 4.7 mg/kg/day
LOAEL (rat [12]; [39]): 818 mg/kg/day
NOAEL (rat [12]; [39]): 8.3 mg/kg/day
LOAEL (rat [13]; systemic / in life observation / clinical signs / anemia): 30.6 mg/kg/day
NOAEL (rat [13]; systemic / in life observation / clinical signs / anemia + systemic / hematology / erythrocyte (rbc) count differential / erythrocyte (rbc…): 1.1 mg/kg/day
LEL (rat [13]; [40]): 1.4 mg/kg/day
NEL (rat [13]; [40]): < 1.4 mg/kg/day
LEL (mouse [14]; systemic / hematology / erythrocyte (rbc) count differential / erythrocyte (rbc) + systemic / hematology / hematocrit (hct) / hematocrit (…): 15.2 mg/kg/day
LOAEL (mouse [14]; systemic / organ weight / spleen / absolute + systemic / organ weight / spleen / relative to body weight): 136 mg/kg/day
NEL (mouse [14]; [41]): 4.7 mg/kg/day
NOAEL (mouse [14]; [41]): 15.2 mg/kg/day

O=C1CC=C([O-])N=N1.[K+] [Maleic hydrazide, potassium salt]
LEL (dog [15]): 87 mg/kg/day
LOAEL (dog [15]): 87 mg/kg/day
NEL (dog [15]): 25 mg/kg/day
NOAEL (dog [15]): 25 mg/kg/day
LOAEL (rat [16]; systemic / in life observation / body weight / body weight): 500 mg/kg/day
LEL (rat [16]; [42]): 500 mg/kg/day
NOAEL (rat [16]; [42]): 25 mg/kg/day
NEL (rat [16]; systemic / organ weight / kidney / absolute + systemic / organ weight / liver / absolute + systemic / in life observation / body weight / …): 25 mg/kg/day
